“Also recorded” adds a separate entry of the source.
Columns and labels:
[1] = system: uremic rat model of CKD featuring vascular calcification; assay: Rat model of uremia-associated vascular calcification (5/6th nephrectomy, calcitriol, 0.9% P diet); type: in vivo
Text: Chronic kidney disease (CKD) has multiple pathogenic mechanisms, and advanced CKD is often characterized by disordered mineral metabolism (e.g., hyperphosphatemia, hypercalcemia) and vascular calcification.

[2] = system: adenine-induced uremic rat model; assay: Adenine-induced uremic rat model; type: in vivo
Procedure: The effects of Cpd 002(were tested in an adenine-induced uremic rat model. Rats were fed a diet including 0.75% adenine and 1.2% phosphorus during the nephritis induction phase. The basal diet during the treatment phase was normal chow including 0.3% adenine and 0.6% phosphorus for 2 weeks. The rats were pair-fed the first 5 days (groups 1 and 2 to group 3, 4 days apart), and fed ad libitum afterwards. The treatment groups were as follows: vehicle, n=10; Cpd 002, 2 mg/kg/day drug-in-chow, n=10; and Cpd 002, 5 mg/kg/day drug-in-chow, n=12. Weekly measurements were taken for serum markers and kidney function.

[3] = system: dietary salt-induced, partial renal ablation model of CKD; assay: Renal insufficiency with high salt feed in nephrectomized rats; type: in vivo, rat
Procedure: The effects of Cpd 002 were tested in a dietary salt-induced, partial renal ablation model of CKD.

rats = assay: Urinary excretion of phosphate and calcium in rats; type: in vivo, rat; details: 16 hours overnight urine
Procedure: The activity of compound 002 was tested for its effects on phosphorus and calcium levels in the urine of rats. Rats were dosed according to the schedule in Table E7.
The rats were kept for 16 hours overnight (in the dark, the typical feeding period) in individual metabolic cages, and urine was collected the following morning for analysis of phosphate and calcium levels. The study design is shown WO2014169094.

[4] = In vitro dissolution of CPD002 formulations; type: physicochemical; details: CPD002 formulations at high pH
[5] = haemodialysis patients; cited from earlier work
Sprague Dawley (SD) rats = assay: Combination treatment with tenapanor and sevelamer in rats (urinary and renal phosphorous and sodium, BLISS model)
Procedure: A total of 48, approximately 8-week-old male Sprague Dawley (SD) rats (Envigo, Livermore, Calif.), weighing approximately 250 g on arrival, were housed 2-per cage in micro-isolator cages for a 48-hr acclimation period prior to being assigned to study groups. Animals were housed in a temperature (65-75° F.) and humidity (35-55%) controlled facility utilizing a reversed 12-hour light/dark cycle (7 AM-7 PM dark cycle). […] Body weights were recorded at study initiation and daily for the remainder of the study. Animals were maintained in accordance with the Guide for the Care and Use of Laboratory Animals (National Research Council, 2011). The study was conducted under a protocol approved by the Institutional Animal Care and Use Committee.
Rats were randomly assigned to one of eight groups (n=6/group) provided with a diet containing varying amounts of sevelamer (0-3% w/w) and were dosed by oral gavage twice daily with vehicle (0.01% Tween80) or tenapanor (0.15 mg/kg) for 11-consecutive days according to the study assignments shown in the following table.
Rats dosed orally with vehicle and provided diet without sevelamer (Group 1) served as the control group. Treatment arms included groups treated with tenapanor alone (0.15 mg/kg, bid), sevelamer alone (0.75, 1,5 or 3% w/w in chow) and the combination of tenapanor (0.15 mg/kg, bid) with each dose level of sevelamer (0.75, 1,5 or 3% w/w in chow). Animals were dosed in their home cages while pair-housed for the first five treatment days. On treatment day 6, all animals were housed individually in metabolic cages for the remainder of the study and continued to be provided ad libitum access to diet containing 0-3% sevelamer w/w and dosed twice daily with vehicle or tenapanor. Following two days acclimation to the metabolic cages, 24-hour food intake, water intake and urinary volume were measured and recorded for the final four treatment days. Urinary sodium and phosphorous concentration was measured by ion chromatography (IC). 24-hour urinary sodium and phosphorous excretion were calculated by multiplying ion concentration by 24-hour urine volume. Urinary ion excretion was also normalized to daily dietary ion intake to account for daily fluctuations in food intake.
Dosing solutions containing tenapanor (Ardelyx, Fremont Calif.) at a concentration of 0.03 mg/mL were made fresh weekly by adding the appropriate weight of tenapanor to 0.1% Tween 80 vehicle. The dose volume was 5 mL/kg for all groups.
Animals were dosed twice daily (bid) orally (po), immediately prior to lights out (7 AM) and during the middle of dark cycle (2 PM) with a standard gavage needle (38 mm, 20 G). Animals were removed from the holding or metabolic cages for dosing and then immediately returned to the cage of origin.
Urine samples were analyzed for sodium and phosphorous content on an ion chromatography system (Thermo Fisher Scientific ICS-3000 or ICS-5000+) coupled with conductivity detectors.

[6] = Cpd 002 0.065 mg/g chow vs vehicle diet, listed as Cpd 002
[7] = endpoint day 27, Cpd 002 0.065 mg/g chow vs vehicle diet
[8] = endpoint, Cpd 002 0.065 mg/g chow vs vehicle diet
[9] = early time points, Cpd 002 2 or 5 mg/kg/day drug-in-chow
[10] = week three, at the highest dose
[11] = tenapanor 0.15 mg/kg po bid alone, four day collection period, relative to control group 1

CN1Cc2c(Cl)cc(Cl)cc2[C@H](c2cccc(S(=O)(=O)NCCOCCOCCNC(=O)NCCCCNC(=O)NCCOCCOCCNS(=O)(=O)c3cccc([C@@H]4CN(C)Cc5c(Cl)cc(Cl)cc54)c3)c2)C1 [Tenapanor, tenapanor]
hypertrophy of the heart (endpoint heart weight) [1, 6]: lessened; also recorded: reduce
hypertrophy of the kidney remnant (endpoint kidney remnant weight) [1, 6]: lessened; also recorded: reduce
plasma FGF-23 [1, 7]: reduced
plasma creatinine [1, 7]: reduced
plasma phosphorus ([1]; endpoint day 27, Cpd 002 0.065 mg/g chow vs vehicle diet, listed as Cpd 002): reduced; also recorded: anti-hyperphosphatemic effects
calcium in the stomach (soft tissue calcification) [1, 8]: reduced
phosphorus in the stomach (soft tissue calcification) [1, 8]: reduced
plasma aldosterone levels [1, 8]: increase
vascular calcification as measured by aortic mineral content ([1]; endpoint, Cpd 002 0.065 mg/g chow vs vehicle diet, listed as Cpd 002): reduce
moribundity ([1]; treatment group vs vehicle): decreased
mortality outcome ([1]; treatment group vs vehicle): trend toward improved mortality outcome
serum creatinine [2, 9]: reduced
serum phosphorus [2, 9]: reduced
heart remodeling (organ weight) ([2]; week three): trend towards lesser
kidney remodeling (organ weight) ([2]; week three): trend towards lesser
heart calcification [2, 10]: trend towards reduced
kidney calcification [2, 10]: trend towards reduced
albuminuria [3]: improved
blood pressure [3]: improved
fluid overload [3]: improved
heart hypertrophy [3]: improved
kidney hypertrophy [3]: improved
phosphorus urinary excretion [3]: significantly reduced
urine phosphorus mass relative to the vehicle-only control (rats; Cpd 002 0.1-3.0 mg/kg): reduced
urine phosphorus mass relative to 48 mg/kg Renvela (rats; increasing dosages of Cpd 002): significantly reduced
in vitro dissolution profile [4]: slower and/or incomplete dissolution
serum phosphate levels [5]: significantly lower
urinary sodium excretion (Sprague Dawley (SD) rats; single agent, compared to vehicle control): significantly decreased
24-hr urinary phosphorous excretion (Sprague Dawley (SD) rats; single agent, compared to vehicle control, final four days of treatment): significantly decreased
% Reduction Urinary Phosphorous Excretion When Dosed Alone (Sprague Dawley (SD) rats; [11]): 33.2%
% Reduction Urinary Sodium Excretion When Dosed Alone (Sprague Dawley (SD) rats; [11]): 82.1%
urinary sodium excretion (Sprague Dawley (SD) rats; tenapanor co-administered with all doses of sevelamer, compared to control): significantly reduced
